# Active and inactive are the calls of the source. The rule behind the calls is not given here.
# How the values were obtained:
# [1] = system: Staphylococcus aureus; experiment: Antimicrobial activity against log-phase methicillin-resistant Staphylococcus aureus HUSA 304 assessed as resistant bacteria in tissue cage fluid selected on 1 to 5 ug/ml of compound measured on day 11 post treatment in presence of 50 mg/L calcium ions; format: functional, organism-based
# [2] = system: Staphylococcus aureus; experiment: Antimicrobial activity against log-phase methicillin-resistant Staphylococcus aureus HUSA 304 assessed as resistant bacteria on coverslip selected on 1 to 5 ug/ml of compound measured on day 11 post treatment in presence of 50 mg/L calcium ions; format: functional, organism-based
# [3] = system: Staphylococcus aureus; experiment: Antimicrobial activity against log-phase methicillin-resistant Staphylococcus aureus HUSA 304 by M7-A6 method in presence of 50 mg/L calcium ions; format: functional
# [4] = system: Staphylococcus aureus; experiment: Bactericidal activity against log-phase methicillin-resistant Staphylococcus aureus HUSA 304 after 24 hrs by time kill analysis; format: functional; conditions: HUSA 304, 24 h
# [5] = system: Staphylococcus aureus; experiment: Bactericidal activity against stationary-phase methicillin-resistant Staphylococcus aureus HUSA 304 after 24 hrs by time kill analysis; format: functional; conditions: HUSA 304, 24 h
# [6] = Cmax in tissue cage fluid of Wistar rat infected with methicillin-resistant Staphylococcus aureus HUSA 304 at 45 mg/kg/day, ip; format: ADME, organism-based, Interstitial fluid; set-up: dose 45 mg/kg/day, route intraperitoneal
# [7] = Cmax in tissue cage fluid of Wistar rat infected with methicillin-resistant Staphylococcus aureus HUSA 304 at 70 mg/kg/day, ip; format: ADME, organism-based, Interstitial fluid; set-up: dose 70 mg/kg/day, route intraperitoneal
# [8] = Cmax in tissue cage fluid of Wistar rat infected with methicillin-resistant Staphylococcus aureus HUSA 304 at 100 mg/kg/day, ip; format: ADME, organism-based, Interstitial fluid; set-up: dose 100 mg/kg/day, route intraperitoneal
# [9] = AUC (0 to infinity) in tissue cage fluid of Wistar rat infected with methicillin-resistant Staphylococcus aureus HUSA 304 at 45 mg/kg/day, ip; format: ADME, organism-based; set-up: dose 45 mg/kg/day, time infinity, route intraperitoneal
# [10] = AUC (0 to infinity) in tissue cage fluid of Wistar rat infected with methicillin-resistant Staphylococcus aureus HUSA 304 at 70 mg/kg/day, ip; format: ADME, organism-based; set-up: dose 70 mg/kg/day, time infinity, route intraperitoneal
# [11] = AUC (0 to infinity) in tissue cage fluid of Wistar rat infected with methicillin-resistant Staphylococcus aureus HUSA 304 at 100 mg/kg/day, ip; format: ADME, organism-based; set-up: dose 100 mg/kg/day, time infinity, route intraperitoneal
# [12] = Ratio of Cmax in tissue cage fluid of Wistar rat infected with methicillin-resistant Staphylococcus aureus HUSA 304 at 45 mg/kg/day, ip to MIC for methicillin-resistant Staphylococcus aureus HUSA 304; format: functional; conditions: route intraperitoneal
# [13] = Ratio of Cmax in tissue cage fluid of Wistar rat infected with methicillin-resistant Staphylococcus aureus HUSA 304 at 70 mg/kg/day, ip to MIC for methicillin-resistant Staphylococcus aureus HUSA 304; format: functional; conditions: route intraperitoneal
# [14] = Ratio of Cmax in tissue cage fluid of Wistar rat infected with methicillin-resistant Staphylococcus aureus HUSA 304 at 100 mg/kg/day, ip to MIC for methicillin-resistant Staphylococcus aureus HUSA 304; format: functional; conditions: route intraperitoneal
# [15] = Ratio of AUC (0 to infinity) in tissue cage fluid of Wistar rat infected with methicillin-resistant Staphylococcus aureus HUSA 304 at 45 mg/kg/day, ip to MIC for methicillin-resistant Staphylococcus aureus HUSA 304; format: functional; conditions: route intraperitoneal
# [16] = Ratio of AUC (0 to infinity) in tissue cage fluid of Wistar rat infected with methicillin-resistant Staphylococcus aureus HUSA 304 at 70 mg/kg/day, ip to MIC for methicillin-resistant Staphylococcus aureus HUSA 304; format: functional; conditions: route intraperitoneal
# [17] = Ratio of AUC (0 to infinity) in tissue cage fluid of Wistar rat infected with methicillin-resistant Staphylococcus aureus HUSA 304 at 100 mg/kg/day, ip to MIC for methicillin-resistant Staphylococcus aureus HUSA 304; format: functional; conditions: route intraperitoneal
# [18] = fT>MIC in methicillin-resistant Staphylococcus aureus HU 304 infected in Wistar rat at 45 mg/kg/day, ip for 7 days; format: functional; conditions: route intraperitoneal
# [19] = fT>MIC in methicillin-resistant Staphylococcus aureus HU 304 infected in Wistar rat at 70 mg/kg/day, ip for 7 days; format: functional; conditions: route intraperitoneal
# [20] = fT>MIC in methicillin-resistant Staphylococcus aureus HU 304 infected in Wistar rat at 100 mg/kg/day, ip for 7 days; format: functional; conditions: route intraperitoneal
# [21] = Cmax in serum of Wistar rat infected with methicillin-resistant Staphylococcus aureus HUSA 304 at 45 mg/kg/day, ip for 7 days; format: ADME, organism-based; set-up: dose 45 mg/kg/day, route intraperitoneal
# [22] = Cmax in serum of Wistar rat infected with methicillin-resistant Staphylococcus aureus HUSA 304 at 70 mg/kg/day, ip for 7 days; format: ADME, organism-based; set-up: dose 70 mg/kg/day, route intraperitoneal
# [23] = Cmax in serum of Wistar rat infected with methicillin-resistant Staphylococcus aureus HUSA 304 at 100 mg/kg/day, ip for 7 days; format: ADME, organism-based; set-up: dose 100 mg/kg/day, route intraperitoneal
# [24] = Cmax in serum of human infected with methicillin-resistant Staphylococcus aureus HUSA 304 at 6 mg/kg/day, […]; format: ADME, organism-based; set-up: dose 6 mg/kg/day
# [25] = Cmax in serum of human infected with methicillin-resistant Staphylococcus aureus HUSA 304 at 8 mg/kg/day, […]; format: ADME, organism-based; set-up: dose 8 mg/kg/day, route intraperitoneal
# [26] = Cmax in serum of human infected with methicillin-resistant Staphylococcus aureus HUSA 304 at 10 mg/kg/day, […]; format: ADME, organism-based; set-up: dose 10 mg/kg/day, route intraperitoneal
# [27] = AUC (0 to infinity) in serum of Wistar rat infected with methicillin-resistant Staphylococcus aureus HUSA 304 at 45 mg/kg/day, ip for 7 days; format: ADME, organism-based; set-up: dose 45 mg/kg/day, time infinity, route intraperitoneal
# [28] = AUC (0 to infinity) in serum of Wistar rat infected with methicillin-resistant Staphylococcus aureus HUSA 304 at 70 mg/kg/day, ip for 7 days; format: ADME, organism-based; set-up: dose 70 mg/kg/day, time infinity, route intraperitoneal
# [29] = AUC (0 to infinity) in serum of Wistar rat infected with methicillin-resistant Staphylococcus aureus HUSA 304 at 100 mg/kg/day, ip for 7 days; format: ADME, organism-based; set-up: dose 100 mg/kg/day, time infinity, route intraperitoneal
# [30] = AUC (0 to 24 hrs) in serum of human infected with methicillin-resistant Staphylococcus aureus HUSA 304 at 6 mg/kg/day, […]; format: ADME, organism-based; set-up: time < 24 hr, dose 6 mg/kg/day
# [31] = AUC (0 to 24 hrs) in serum of human infected with methicillin-resistant Staphylococcus aureus HUSA 304 at 8 mg/kg/day, […]; format: ADME, organism-based; set-up: dose 8 mg/kg/day, time < 24 hr
# [32] = AUC (0 to 24 hrs) in serum of human infected with methicillin-resistant Staphylococcus aureus HUSA 304 at 10 mg/kg/day, […]; format: ADME, organism-based; set-up: dose 10 mg/kg/day, time < 24 hr
# [33] = system: Staphylococcus aureus; experiment: Antimicrobial activity against methicillin-resistant Staphylococcus aureus HUSA 304 infected in Wistar rat assessed as decrease in bacterial load in tissue cage fluid at 100 mg/kg/day, ip administered for 7 days measured on day 8 post treatment in presence of 50 mg/L calcium ions; format: functional; conditions: route intraperitoneal
# [34] = system: Staphylococcus aureus; experiment: Antimicrobial activity against methicillin-resistant Staphylococcus aureus HUSA 304 infected in Wistar rat assessed as decrease in bacterial load in tissue cage fluid at 100 mg/kg/day, ip administered for 7 days measured on day 11 post treatment in presence of 50 mg/L calcium ions; format: functional; conditions: route intraperitoneal
# [35] = system: Staphylococcus aureus; experiment: Antimicrobial activity against log-phase methicillin-resistant Staphylococcus aureus HUSA 304 selected on 1 to 5 ug/ml of compound measured after 5 days by M7-A6 method in presence of 50 mg/L calcium ions; format: functional; conditions: HUSA 304, 120 h
# [36] = system: Staphylococcus aureus; experiment: Antimicrobial activity against log-phase methicillin-resistant Staphylococcus aureus HUSA 304 assessed as resistant bacteria in tissue cage fluid selected on 1 to 5 ug/ml of compound measured on day 8 post treatment in presence of 50 mg/L calcium ions; format: functional, organism-based
# [37] = system: Staphylococcus aureus; experiment: Antimicrobial activity against log-phase methicillin-resistant Staphylococcus aureus HUSA 304 assessed as resistant bacteria in tissue cage fluid selected on 4 ug/ml of compound measured on day 8 post treatment; format: functional, organism-based
# [38] = system: Staphylococcus aureus; experiment: Antimicrobial activity against log-phase methicillin-resistant Staphylococcus aureus HUSA 304 assessed as resistant bacteria in tissue cage fluid selected on 4 ug/ml of compound measured on day 11 post treatment; format: functional, organism-based
# [39] = system: Staphylococcus aureus; experiment: Antimicrobial activity against log-phase methicillin-resistant Staphylococcus aureus HUSA 304 assessed as resistant bacteria on coverslip selected on 4 ug/ml of compound measured on day 11 post treatment; format: functional, organism-based
# [40] = system: Staphylococcus aureus; experiment: Bactericidal activity against log-phase methicillin-resistant Staphylococcus aureus HUSA 304 after 24 hrs by time kill analysis in presence of 50 mg/L calcium ions; format: functional; conditions: HUSA 304, 24 h
# [41] = system: Staphylococcus aureus; experiment: Bactericidal activity against stationary-phase methicillin-resistant Staphylococcus aureus HUSA 304 after 24 hrs by time kill analysis in presence of 50 mg/L calcium ions; format: functional; conditions: HUSA 304, 24 h
# [42] = system: Staphylococcus aureus; experiment: Antimicrobial activity against methicillin-resistant Staphylococcus aureus HUSA 304 infected in Wistar rat assessed as decrease in bacterial load in tissue cage fluid at 50 mg/kg, ip administered every 12 hrs for 7 days measured on day 8 post treatment; format: functional; conditions: route intraperitoneal
# [43] = system: Staphylococcus aureus; experiment: Antimicrobial activity against methicillin-resistant Staphylococcus aureus HUSA 304 infected in Wistar rat assessed as decrease in bacterial load in tissue cage fluid at 50 mg/kg, ip administered every 12 hrs for 7 days measured on day 11 post treatment; format: functional; conditions: route intraperitoneal
smiles,measurement,setting,value
CCCCCCCCCC(=O)N[C@@H](Cc1c[nH]c2ccccc12)C(=O)N[C@H](CC(N)=O)C(=O)N[C@@H](CC(=O)O)C(=O)N[C@@H]1C(=O)NCC(=O)N[C@@H](CCCN)C(=O)N[C@@H](CC(=O)O)C(=O)N[C@H](C)C(=O)N[C@@H](CC(=O)O)C(=O)NCC(=O)N[C@H](CO)C(=O)N[C@@H]([C@H](C)CC(=O)O)C(=O)N[C@@H](CC(=O)c2ccccc2N)C(=O)O[C@@H]1C,Activity,[1],Active
same,Activity,[2],Active
same,MIC,[3],1 µg/mL
same,MBC,[4],4 µg/mL
same,MBC,[5],24 µg/mL
same,Cmax,[6],26 µg/mL
same,Cmax,[7],34 µg/mL
same,Cmax,[8],40 µg/mL
same,AUC(0-inf),[9],795 µg·h/mL
same,AUC(0-inf),[10],953 µg·h/mL
same,AUC(0-inf),[11],1100 µg·h/mL
same,Ratio,[12],26
same,Ratio,[13],34
same,Ratio,[14],40
same,RatioAUC/MIC,[15],795
same,RatioAUC/MIC,[16],953
same,RatioAUC/MIC,[17],1100
same,fT>MIC,[18],100%
same,fT>MIC,[19],100%
same,fT>MIC,[20],100%
same,Cmax,[21],103 µg/mL
same,Cmax,[22],128 µg/mL
same,Cmax,[23],140 µg/mL
same,Cmax,[24],95 µg/mL
same,Cmax,[25],106 µg/mL
same,Cmax,[26],130 µg/mL
same,AUC(0-inf),[27],830 µg·h/mL
same,AUC(0-inf),[28],984 µg·h/mL
same,AUC(0-inf),[29],1200 µg·h/mL
same,AUC at 24 h,[30],730 µg·h/mL
same,AUC at 24 h,[31],773 µg·h/mL
same,AUC at 24 h,[32],1010 µg·h/mL
same,log10cfu,[33],2.26
same,log10cfu,[34],2.57
same,MIC,[35],1 µg/mL
same,Activity,[36],Active
CC(=O)NC[C@H]1CN(c2ccc(N3CCOCC3)c(F)c2)C(=O)O1 [LINEZOLID],Activity,[37],Active
same,Activity,[38],Active
same,Activity,[39],Active
same,MBC,[40],> 32 µg/mL
same,MBC,[41],> 32 µg/mL
same,log10cfu,[42],1.06
same,log10cfu,[43],0.93
